Test results published in patent US20160031935A1, “SMALL MOLECULE MODULATORS OF PCSK9 AND METHODS OF USE THEREOF” (ADAERATA, LIMITED PARTNERSHIP, priority 2013, published 2016).

How the values were obtained:
HepG2 cells = test: Cell viability assay (cell density during the PCSK9 secretion assay); format: cell-based, human; details: 33 μM
Method: For the cell viability assay, the cell density of HepG2 cells was measured in the presence of 33 μM of compounds or in the presence of DMSO (control) during the PCSK9 secretion assay described in Example 92. Table II below presents compounds with a low toxicity at 33.3 μM or less.

cell surface LDLR = test: FACS assay of LDLR at the HepG2 cell surface; format: cell-based, human; details: 10 μM, 24 h; LDLR positive HepG2 cells
Method: The ability of PCSK9 inhibitory compounds to prevent the activity of PCSK9 on LDLR at the cell surface was also measured by using flow cytometry analyses as described in Benjannet S. et al. J. Biol. Chem. 285: 40965-40978, 2010. The level of LDLR at the HepG2 cell surface was measured by using anti human LDLR antibody (1:100, mAb-C7, Santa Cruz Biotechnology) and a secondary Alexa Fluor 647 donkey anti-mouse (Molecular Probes) antibody. Viable cells (PI-negative) were then analyzed by FACS for both PI and Alexa Fluor 647 using the FACS BD LSR (BD Biosciences). Cell surface LDLR was reported relative to control (untreated cells). The inhibition of the PCSK9 function in these assays was detected by an increased number of positive cells which correlated with an increased expression of LDLR at the cell surface.
More particularly, Human hepatoblastoma HepG2 cells (4×10^5 cells/well) were seeded in 12 well plates (Greiner BioOne) in complete media and cultured for 20 hours, at 37° C., followed by a 1 hour wash in serum free media at 37° C. Next, the wash media was removed and the cells were incubated overnight (24 hours) with 0.9 ml/well incubation media containing compounds at 10 uM or DMSO control (0.4% final). After one rinse with buffer A followed by another rinse with EDTA solution (2.5 mM EDTA-2Na), the cells were detached by incubation in the presence of fresh EDTA solution (1 ml) at 37° C. for 20 minutes. All the steps following cell detachment were conducted on ice or 4° C. To terminate the detachment, the cells were transferred in a 15 ml tube containing 3 ml of buffer A and centrifuged immediately for 5 minutes at 900 rpm (100 g) (4° C.). The cells were then resuspended in 500 ul buffer A together with 1:250 human LDLR antibody and incubated on ice for 10 minutes. Cells were washed once with 5 ml buffer A, centrifuged for 5 minutes, resuspended in 500 ul buffer A containing 1:500 Alexa Fluor 647 secondary antibody and incubated on ice for 5 min. After the staining, cells were washed once with 5 ml buffer A, centrifuged for 5 minutes and resuspended in 300 ul buffer A containing 1.67 ug/ml propidium iodide. A fixed number (2,000 cells) of viable cells (propidium iodide negative) were then analyzed by FACS for Alexa Fluor 647 (cell surface LDLR) using a FACS-CyAn ADP flow cytometer (Beckman Coulter (DAKO)) and Summit software (Summit Software Inc.).
Human HepG2 cell line: ATCC, HB-8065 Seeding media: complete media—EMEM (high glucose+sodium pyruvate) (Wisent)+10% FBS Wash media: serum free media—EMEM (high glucose+sodium pyruvate) (Wisent) Incubation media with compounds: EMEM (high glucose+sodium pyruvate) (Wisent)+0.07% BSA (Sigma-Aldrich) BufferA: 1×D-PBS without calcium and magnesium (Wisent 311-425-CL)+0.5% BSA (Sigma A7409-50ml)+[…] Glucose (Wisent 609-036-EL). Primary antibody: human LDLR antibody, monoclonal Mouse IgG1 clone #472413 (MAB2148, R&D Systems) Secondary antibody: Alexa Fluor® 647 goat anti-mouse IgG (H+L)*2 mg/mL*(A21235, Molecular Probes) Propidium iodide: 1 mg/ml solution (P4864, Sigma)

Compound | Cell viability (% DMSO Cnt) (HepG2 cells) | FACS-LDLR (% DMSO Cnt) (cell surface LDLR)
CCCCCCCCCC(=O)N[C@H](C(=O)N[C@@H](Cc1ccccc1)C(=O)N[C@H](C)C(=O)N[C@@H](CCC(N)=O)C(O)C(F)(F)F)C(C)C (single isomer, unassigned) [Example 60] | 80 % DMSO Cnt | 138 ± 8 % DMSO Cnt
CC(C)[C@H](NC(=O)c1ccc(-c2ccccc2)cc1)C(=O)N[C@@H](Cc1ccccc1)C(=O)NC1(C(=O)N[C@@H](CCC(N)=O)C(O)C(F)(F)F)CCC1 (single isomer, unassigned) [Example 66] |  | 122 ± 11 % DMSO Cnt
CC(C)[C@H](NC(=O)c1ccc(-c2ccccc2)cc1)C(=O)N[C@@H](Cc1ccccc1)C(=O)N[C@@H](C)C(=O)NC(CCC(N)=O)C(O)C(F)(F)F (stereo partly drawn) [Example 24, N-((2S)-1-(((2S)-1-(((2S)-1-((6-Amino-1,1,1-trifluoro-2-hydroxy-6-oxohexan-3-yl)amino)-1-oxopropan-2-yl)amino)-1-oxo-3-phenylpropan-2-yl)amino)-3-methyl-1-oxobutan-2-yl)-[1,1′-biphenyl]-4-carboxamide] |  | 116 ± 5 % DMSO Cnt
CC(C)[C@H](NC(=O)c1ccc(C2(C(F)(F)F)N=N2)cc1)C(=O)N[C@@H](Cc1ccccc1)C(=O)N[C@@H](C)C(=O)NC(CCC(N)=O)C(O)C(F)(F)F (stereo partly drawn) [Example 29, N-((2S)-1-(((2S)-1-(((2S)-1-((6-Amino-1,1,1-trifluoro-2-hydroxy-6-oxohexan-3-yl)amino)-1-oxopropan-2-yl)amino)-1-oxo-3-phenylpropan-2-yl)amino)-3-methyl-1-oxobutan-2-yl)-4-(3-(trifluoromethyl)-3H-diazirin-3-yl)benzamide] | 88 % DMSO Cnt | 233 ± 50 % DMSO Cnt
CC(C)[C@H](NC(=O)c1ccc(-c2ccc(F)cc2)cc1)C(=O)N[C@@H](Cc1ccccc1)C(=O)N[C@@H](C)C(=O)NC(CCC(N)=O)C(O)C(F)(F)F (stereo partly drawn) [Example 52, N-((2S)-1-(((2S)-1-(((2S)-1-((6-Amino-1,1,1-trifluoro-2-hydroxy-6-oxohexan-3-yl)amino)-1-oxopropan-2-yl)amino)-1-oxo-3-phenylpropan-2-yl)amino)-3-methyl-1-oxobutan-2-yl)-4′-fluoro-[1,1′-biphenyl]-4-carboxamide] |  | 138 ± 20 % DMSO Cnt
CCCCCCCCCC(=O)N[C@H](C(=O)N[C@@H](Cc1ccccc1)C(=O)N[C@H](C(=O)NC(CCC(N)=O)C(O)C(F)(F)F)C(C)C)C(C)C (stereo partly drawn) [Example 58, N-((2S)-1-(((2S)-1-(((2S)-1-((6-amino-1,1,1-trifluoro-2-hydroxy-6-oxohexan-3-yl)amino)-3-methyl-1-oxobutan-2-yl)amino)-1-oxo-3-phenylpropan-2-yl)amino)-3-methyl-1-oxobutan-2-yl)decanamide] | 93 % DMSO Cnt | 166 ± 28 % DMSO Cnt
CCCCCCCCCC(=O)N[C@H](C(=O)N[C@@H](Cc1ccccc1)C(=O)N[C@@H](Cc1ccccc1)C(=O)NC(CCC(N)=O)C(O)C(F)(F)F)C(C)C (stereo partly drawn) [Example 59, N-((2S)-1-(((2S)-1-(((2S)-1-((6-Amino-1,1,1-trifluoro-2-hydroxy-6-oxohexan-3-yl)amino)-1-oxo-3-phenylpropan-2-yl)amino)-1-oxo-3-phenylpropan-2-yl)amino)-3-methyl-1-oxobutan-2-yl)decanamide] | 83 % DMSO Cnt | 265 ± 35 % DMSO Cnt
CC(C)[C@H](NC(=O)c1ccc(-c2ccccc2)cc1)C(=O)N[C@H](Cc1ccccc1)C(=O)N[C@@H](C)C(=O)NC(CCC(N)=O)C(O)C(F)(F)F (stereo partly drawn) [Example 70, N-((2S)-1-(((2R)-1-(((2S)-1-((6-Amino-1,1,1-trifluoro-2-hydroxy-6-oxohexan-3-yl)amino)-1-oxopropan-2-yl)amino)-1-oxo-3-phenylpropan-2-yl)amino)-3-methyl-1-oxobutan-2-yl)-[1,1′-biphenyl]-4-carboxamide] |  | 118 ± 18 % DMSO Cnt
CSCC[C@H](NC(=O)c1ccc(-c2ccccc2)cc1)C(=O)N[C@@H](Cc1ccccc1)C(=O)N[C@@H](C)C(=O)NC(CCC(N)=O)C(O)C(F)(F)F (stereo partly drawn) [Example 75, N-((5S,8S,11S)-17-amino-8-benzyl-11-methyl-6,9,12,17-tetraoxo-14-(2,2,2-trifluoro-1-hydroxyethyl)-2-thia-7,10,13-triazaheptadecan-5-yl)-[1,1′-biphenyl]-4-carboxamide] |  | 174 ± 41 % DMSO Cnt
